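Five compound concentrations were applied to cells in 96-well plates for 48 hours; endpoints were derived by simple linear interpolation of the resulting dose-response curve. Definition used: TGI = concentration required for complete inhibition of growth.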
What was measured:
Experiment in all cases: NCI anticancer screen, dose series, 48 h
786-0 renal = tested on: 786-0 renal
A498 renal = tested on: A498 renal
A549 NSCLC = tested on: A549 NSCLC
ACHN renal = tested on: ACHN renal
BT-549 breast = tested on: BT-549 breast
CAKI-1 renal = tested on: CAKI-1 renal
CCRF-CEM leukemia = tested on: CCRF-CEM leukemia
COLO 205 colon = tested on: COLO 205 colon
DU-145 prostate = tested on: DU-145 prostate
EKVX NSCLC = tested on: EKVX NSCLC
HCC-2998 colon = tested on: HCC-2998 colon
HCT-116 colon = tested on: HCT-116 colon
HCT-15 colon = tested on: HCT-15 colon
HOP-62 NSCLC = tested on: HOP-62 NSCLC
HOP-92 NSCLC = tested on: HOP-92 NSCLC
HT29 colon = tested on: HT29 colon
IGROV1 ovarian = tested on: IGROV1 ovarian
K-562 leukemia = tested on: K-562 leukemia
KM12 colon = tested on: KM12 colon
LOX IMVI melanoma = tested on: LOX IMVI melanoma
M14 melanoma = tested on: M14 melanoma
MALME-3M melanoma = tested on: MALME-3M melanoma
MCF7 breast = tested on: MCF7 breast
MDA-MB-231 breast = tested on: MDA-MB-231 breast
MDA-MB-435 = tested on: MDA-MB-435
MDA-N = tested on: MDA-N
MOLT-4 leukemia = tested on: MOLT-4 leukemia
NCI-H226 lung = tested on: NCI-H226 lung
NCI-H23 lung = tested on: NCI-H23 lung
NCI-H460 lung = tested on: NCI-H460 lung
NCI-H522 lung = tested on: NCI-H522 lung
NCI/ADR-RES ovarian = tested on: NCI/ADR-RES ovarian
OVCAR-3 ovarian = tested on: OVCAR-3 ovarian
OVCAR-4 ovarian = tested on: OVCAR-4 ovarian
OVCAR-5 ovarian = tested on: OVCAR-5 ovarian
OVCAR-8 ovarian = tested on: OVCAR-8 ovarian
PC-3 prostate = tested on: PC-3 prostate
RPMI-8226 leukemia = tested on: RPMI-8226 leukemia
RXF 393 renal = tested on: RXF 393 renal
SF-268 CNS = tested on: SF-268 CNS
SF-295 CNS = tested on: SF-295 CNS
SK-MEL-2 melanoma = tested on: SK-MEL-2 melanoma
SK-MEL-28 melanoma = tested on: SK-MEL-28 melanoma
SK-MEL-5 melanoma = tested on: SK-MEL-5 melanoma
SK-OV-3 ovarian = tested on: SK-OV-3 ovarian
SN12C renal = tested on: SN12C renal
SNB-19 CNS = tested on: SNB-19 CNS
SNB-75 CNS = tested on: SNB-75 CNS
SR leukemia = tested on: SR leukemia
SW-620 colon = tested on: SW-620 colon
T-47D breast = tested on: T-47D breast
TK-10 renal = tested on: TK-10 renal
U251 CNS = tested on: U251 CNS
UACC-257 melanoma = tested on: UACC-257 melanoma
UO-31 renal = tested on: UO-31 renal
HL-60(TB) leukemia = tested on: HL-60(TB) leukemia
HS 578T breast = tested on: HS 578T breast
SF-539 CNS = tested on: SF-539 CNS
UACC-62 melanoma = tested on: UACC-62 melanoma

Compound CC(C)(C)OC(=O)NCCCCCCC(=O)Cc1ccccc1 has a TGI (786-0 renal) greater than 100 µM, a TGI (A498 renal) greater than 100 µM and a TGI (A549 NSCLC) greater than 100 µM. The TGI (ACHN renal) was greater than 100 µM, the TGI (BT-549 breast) was greater than 100 µM and the TGI (CAKI-1 renal) was greater than 100 µM. For the same compound, the TGI (CCRF-CEM leukemia) was greater than 100 µM, the TGI (COLO 205 colon) was greater than 100 µM and the TGI (DU-145 prostate) was greater than 100 µM. For the same compound, the TGI (EKVX NSCLC) was greater than 100 µM, the TGI (HCC-2998 colon) was greater than 100 µM and the TGI (HCT-116 colon) was greater than 100 µM. It also gave a TGI (HCT-15 colon) greater than 100 µM, a TGI (HOP-62 NSCLC) greater than 100 µM and a TGI (HOP-92 NSCLC) greater than 100 µM. It also gave a TGI (HT29 colon) greater than 100 µM, a TGI (IGROV1 ovarian) greater than 100 µM and a TGI (K-562 leukemia) greater than 100 µM. It also gave a TGI (KM12 colon) greater than 100 µM, a TGI (LOX IMVI melanoma) greater than 100 µM and a TGI (M14 melanoma) greater than 100 µM. It also gave a TGI (MALME-3M melanoma) greater than 100 µM, a TGI (MCF7 breast) greater than 100 µM and a TGI (MDA-MB-231 breast) greater than 100 µM. The TGI (MDA-MB-435) was greater than 100 µM, the TGI (MDA-N) was greater than 100 µM and the TGI (MOLT-4 leukemia) was greater than 100 µM. The TGI (NCI-H226 lung) was greater than 100 µM, the TGI (NCI-H23 lung) was greater than 100 µM and the TGI (NCI-H460 lung) was greater than 100 µM. It also gave a TGI (NCI-H522 lung) greater than 100 µM, a TGI (NCI/ADR-RES ovarian) greater than 100 µM and a TGI (OVCAR-3 ovarian) greater than 100 µM. For the same compound, the TGI (OVCAR-4 ovarian) was greater than 100 µM, the TGI (OVCAR-5 ovarian) was greater than 100 µM and the TGI (OVCAR-8 ovarian) was greater than 100 µM. The TGI (PC-3 prostate) was greater than 100 µM, the TGI (RPMI-8226 leukemia) was greater than 100 µM and the TGI (RXF 393 renal) was greater than 100 µM. The TGI (SF-268 CNS) was greater than 100 µM, the TGI (SF-295 CNS) was greater than 100 µM and the TGI (SK-MEL-2 melanoma) was greater than 100 µM. The TGI (SK-MEL-28 melanoma) was greater than 100 µM, the TGI (SK-MEL-5 melanoma) was greater than 100 µM and the TGI (SK-OV-3 ovarian) was greater than 100 µM. For the same compound, the TGI (SN12C renal) was greater than 100 µM, the TGI (SNB-19 CNS) was greater than 100 µM and the TGI (SNB-75 CNS) was greater than 100 µM. It also gave a TGI (SR leukemia) greater than 100 µM, a TGI (SW-620 colon) greater than 100 µM and a TGI (T-47D breast) greater than 100 µM. It also gave a TGI (TK-10 renal) greater than 100 µM, a TGI (U251 CNS) greater than 100 µM and a TGI (UACC-257 melanoma) greater than 100 µM. For the same compound, the TGI (UO-31 renal) was greater than 100 µM.
CN(C)CCCNC(=O)N/N=C\c1cccc2ccccc12 showed a TGI (A498 renal) greater than 10 µM, a TGI (A549 NSCLC) greater than 10 µM and a TGI (ACHN renal) greater than 10 µM. It also gave a TGI (CCRF-CEM leukemia) greater than 10 µM, a TGI (COLO 205 colon) greater than 10 µM and a TGI (DU-145 prostate) greater than 10 µM. It also gave a TGI (EKVX NSCLC) greater than 10 µM, a TGI (HCC-2998 colon) greater than 10 µM and a TGI (HCT-116 colon) greater than 10 µM. The TGI (HCT-15 colon) was greater than 10 µM, the TGI (HL-60(TB) leukemia) was greater than 10 µM and the TGI (HOP-62 NSCLC) was greater than 10 µM. For the same compound, the TGI (HOP-92 NSCLC) was greater than 10 µM, the TGI (HS 578T breast) was greater than 10 µM and the TGI (HT29 colon) was greater than 10 µM. The TGI (IGROV1 ovarian) was greater than 10 µM, the TGI (K-562 leukemia) was greater than 10 µM and the TGI (KM12 colon) was greater than 10 µM. The TGI (LOX IMVI melanoma) was greater than 10 µM, the TGI (M14 melanoma) was greater than 10 µM and the TGI (MALME-3M melanoma) was greater than 10 µM. It also gave a TGI (MCF7 breast) greater than 10 µM, a TGI (MDA-MB-231 breast) greater than 10 µM and a TGI (MDA-N) greater than 10 µM. For the same compound, the TGI (MOLT-4 leukemia) was greater than 10 µM, the TGI (NCI-H460 lung) was greater than 10 µM and the TGI (NCI-H522 lung) was greater than 10 µM. The TGI (NCI/ADR-RES ovarian) was greater than 10 µM, the TGI (OVCAR-4 ovarian) was greater than 10 µM and the TGI (OVCAR-5 ovarian) was greater than 10 µM. For the same compound, the TGI (OVCAR-8 ovarian) was greater than 10 µM, the TGI (PC-3 prostate) was greater than 10 µM and the TGI (RPMI-8226 leukemia) was greater than 10 µM. For the same compound, the TGI (RXF 393 renal) was greater than 10 µM, the TGI (SF-268 CNS) was greater than 10 µM and the TGI (SF-295 CNS) was greater than 10 µM. For the same compound, the TGI (SF-539 CNS) was greater than 10 µM, the TGI (SK-MEL-28 melanoma) was greater than 10 µM and the TGI (SK-MEL-5 melanoma) was greater than 10 µM. For the same compound, the TGI (SK-OV-3 ovarian) was greater than 10 µM, the TGI (SN12C renal) was greater than 10 µM and the TGI (SNB-75 CNS) was greater than 10 µM. For the same compound, the TGI (SR leukemia) was greater than 10 µM, the TGI (SW-620 colon) was greater than 10 µM and the TGI (T-47D breast) was greater than 10 µM. For the same compound, the TGI (TK-10 renal) was greater than 10 µM, the TGI (UACC-62 melanoma) was greater than 10 µM and the TGI (UO-31 renal) was greater than 10 µM.
Compound C=C=C(C)C(=O)N(C(C)C)C(C)C has a TGI (786-0 renal) greater than 100 µM, a TGI (A498 renal) greater than 100 µM and a TGI (A549 NSCLC) greater than 100 µM. The TGI (ACHN renal) was greater than 100 µM, the TGI (BT-549 breast) was greater than 100 µM and the TGI (CCRF-CEM leukemia) was greater than 100 µM. It also gave a TGI (COLO 205 colon) greater than 100 µM, a TGI (DU-145 prostate) greater than 100 µM and a TGI (EKVX NSCLC) greater than 100 µM. For the same compound, the TGI (HCC-2998 colon) was greater than 100 µM, the TGI (HCT-116 colon) was greater than 100 µM and the TGI (HCT-15 colon) was greater than 100 µM. For the same compound, the TGI (HL-60(TB) leukemia) was greater than 100 µM, the TGI (HOP-62 NSCLC) was greater than 100 µM and the TGI (HOP-92 NSCLC) was greater than 100 µM. It also gave a TGI (HT29 colon) greater than 100 µM, a TGI (IGROV1 ovarian) greater than 100 µM and a TGI (K-562 leukemia) greater than 100 µM. The TGI (LOX IMVI melanoma) was greater than 100 µM, the TGI (M14 melanoma) was greater than 100 µM and the TGI (MALME-3M melanoma) was greater than 100 µM. It also gave a TGI (MCF7 breast) greater than 100 µM, a TGI (MDA-MB-231 breast) greater than 100 µM and a TGI (MDA-MB-435) greater than 100 µM. The TGI (MDA-N) was greater than 100 µM, the TGI (MOLT-4 leukemia) was greater than 100 µM and the TGI (NCI-H226 lung) was greater than 100 µM. It also gave a TGI (NCI-H23 lung) greater than 100 µM, a TGI (NCI-H460 lung) greater than 100 µM and a TGI (NCI/ADR-RES ovarian) greater than 100 µM. The TGI (OVCAR-3 ovarian) was greater than 100 µM, the TGI (OVCAR-4 ovarian) was greater than 100 µM and the TGI (OVCAR-5 ovarian) was greater than 100 µM. For the same compound, the TGI (OVCAR-8 ovarian) was greater than 100 µM, the TGI (PC-3 prostate) was greater than 100 µM and the TGI (RPMI-8226 leukemia) was greater than 100 µM. It also gave a TGI (SF-268 CNS) greater than 100 µM, a TGI (SF-295 CNS) greater than 100 µM and a TGI (SK-MEL-28 melanoma) greater than 100 µM. It also gave a TGI (SK-MEL-5 melanoma) greater than 100 µM, a TGI (SK-OV-3 ovarian) greater than 100 µM and a TGI (SN12C renal) greater than 100 µM. The TGI (SNB-19 CNS) was greater than 100 µM, the TGI (SNB-75 CNS) was greater than 100 µM and the TGI (SR leukemia) was greater than 100 µM. For the same compound, the TGI (SW-620 colon) was greater than 100 µM, the TGI (T-47D breast) was greater than 100 µM and the TGI (TK-10 renal) was greater than 100 µM. It also gave a TGI (U251 CNS) greater than 100 µM, a TGI (UACC-257 melanoma) greater than 100 µM and a TGI (UACC-62 melanoma) greater than 100 µM. It also gave a TGI (UO-31 renal) greater than 100 µM.

From PubChem BioAssay (NCI)
